Experimental data published in US9522947B2, “Peptidomimetic macrocycles” (Aileron Therapeutics, Inc., priority 2011, dated 2016).
Positions of bridges follow the written chain, without caps; N, C: chain ends. Non-standard residues stand in square brackets, D forms with d. Residues, ends and D or L forms follow the SMILES beside them. R8 = C=CCCCCCC[C@@](C)(N)C(=O)O; S5 = C=CCCC[C@](C)(N)C(=O)O; Nle = CCCC[C@H](N)C(=O)O

Key:
[1] = Figure 9
Source text: Table printed on a drawing sheet, Figure 9
Footnotes: ** literature values
First reader's note: The Tesamorelin rows are literature values, and their species, dose and route are printed inside the label cell.

[2] = tested on: growth hormone; test: Plasma PD study in rats: growth hormone production/release; type: in vivo, Sprague-Dawley rats; conditions: FIG. 10
Protocol: Five peptidomimetic macrocycles of the invention (SP-1, SP-6, SP-8, SP-21, SP-32), as well as sermorelin, were studied to determine pharmacokinetic and pharmacodynamic parameters in rats. Male Sprague-Dawley rats (300 g, non-fasted, cannulated) were used. The study had three arms: IV administration, SC administration, and SC administration (vehicle control). For experiments using sermorelin, a dose level of 3 mg/kg IV/SC bolus was used (dose volume of 3 mL/kg dose and dose concentration of 1 mg/mL). The vehicle used was: 10 wt % N, N-Dimethylacetamide, 10 wt % DMSO, 2 wt % Solutol HS 15 in water for injection containing 45 mg/mL (4.5 wt %) Mannitol and 25 mM (0.38 wt %) Histidine (pH 7.5; 320 mOsm/kg). The peptide was first dissolved at high concentration in DMA and DMSO before a second dilution in Solutol vehicle.
For experiments using peptidomimetic macrocycles, 0.1 mL of DMA and 0.1 mL of DMSO were used to combine with each mg of macrocycle (˜4.3-4.5 mg of macrocycle used in each experiment). Sonication was used to ensure complete solubilization. 0.8 mL of Solutol vehicle was used for each mg of macrocycle in DMA/DMSO. The solutions were mixed gently with pipet or light vortexing. Fresh vials were used for each day of dosing, and macrocycles were stored solid at −20° C. prior to formulation. […]

[3] = cited from earlier work

Compound	AUCinf | [1]	Clp | [1]	MRT | hr [1]	Vdss | [1]	t 1/2 | hr [1]	stimulation of growth hormone production [2]	half-life of GHRH after intravenous injection [3]
CCCC[C@H](NC(=O)[C@@H](NC(=O)[C@H](CC(=O)O)NC(=O)[C@H](CCC(N)=O)NC(=O)[C@H](CC(C)C)NC(=O)[C@]1(C)CCCC=CCCCCCC[C@@](C)(NC(=O)[C@H](CC(C)C)NC(=O)[C@@H](NC(=O)[C@H](CCCCN)NC(=O)[C@H](CCCNC(=N)N)NC(=O)[C@H](Cc2ccc(O)cc2)NC(=O)[C@H](CO)NC(=O)[C@]2(C)CCCC=CCCC[C@](C)(NC(=O)[C@H](CC(=O)O)NC(=O)[C@@H](C)NC(=O)[C@@H](N)Cc3ccc(O)cc3)C(=O)N[C@@H]([C@@H](C)CC)C(=O)N[C@@H](Cc3ccccc3)C(=O)N[C@@H]([C@@H](C)O)C(=O)N2)C(C)C)C(=O)N[C@@H](CCC(N)=O)C(=O)N[C@@H](CC(C)C)C(=O)N[C@@H](CO)C(=O)N[C@@H](C)C(=O)N[C@@H](CCCNC(=N)N)C(=O)N[C@@H](CCCCN)C(=O)N1)[C@@H](C)CC)C(=O)N[C@@H](CO)C(=O)N[C@@H](CCCNC(=N)N)C(N)=O [SP-6] (H-Y[dA]D[S5]IFT[S5]SYRKVL[R8]QLSARK[S5]LQDI[Nle]SR-NH2; staple 4-8, 15-22)	23477 ng·h/mL	2.13 mL/min/kg	3.7 h	0.474 L/kg	20.6 h		
CCCC[C@@H]1NC(=O)[C@H]([C@@H](C)CC)NC(=O)[C@H](CC(=O)O)NC(=O)[C@H](CCC(N)=O)NC(=O)[C@H](CC(C)C)NC(=O)[C@H](CC(C)C)NC(=O)[C@](C)(NC(=O)[C@H](CCCNC(=N)N)NC(=O)[C@H](C)NC(=O)[C@H](CO)NC(=O)[C@H](CC(C)C)NC(=O)[C@H](CCC(N)=O)NC(=O)CNC(=O)[C@H](CC(C)C)NC(=O)[C@@H](NC(=O)[C@H](CCCCN)NC(=O)[C@H](CCCNC(=N)N)NC(=O)[C@H](Cc2ccc(O)cc2)NC(=O)[C@H](CO)NC(=O)[C@]2(C)CCCC=CCCC[C@](C)(NC(=O)[C@H](CC(=O)O)NC(=O)[C@@H](C)NC(=O)[C@@H](N)Cc3ccc(O)cc3)C(=O)N[C@@H]([C@@H](C)CC)C(=O)N[C@@H](Cc3ccccc3)C(=O)N[C@@H]([C@@H](C)O)C(=O)N2)C(C)C)CCCCCCC=CCCC[C@@](C)(C(=O)N[C@@H](CCCNC(=N)N)C(N)=O)NC1=O [SP-8] (H-Y[dA]D[S5]IFT[S5]SYRKVLGQLSAR[R8]LLQDI[Nle][S5]R-NH2; staple 4-8, 21-28)						stimulation of growth hormone production	
CCCC[C@H](NC(=O)[C@@H](NC(=O)[C@]1(C)CCCC=CCCC[C@](C)(NC(=O)[C@H](CCCNC(=N)N)NC(=O)[C@H](C)NC(=O)[C@H](CO)NC(=O)[C@H](CC(C)C)NC(=O)[C@H](CCC(N)=O)NC(=O)CNC(=O)[C@H](CC(C)C)NC(=O)[C@@H](NC(=O)[C@]2(C)CCCC=CCCCCCC[C@@](C)(NC(=O)[C@H](C)NC(=O)[C@H](CC(=O)O)NC(=O)[C@@H](C)NC(=O)[C@@H](N)Cc3ccc(O)cc3)C(=O)N[C@@H](Cc3ccccc3)C(=O)N[C@@H]([C@@H](C)O)C(=O)N[C@@H](CC(N)=O)C(=O)N[C@@H](CO)C(=O)N[C@@H](Cc3ccc(O)cc3)C(=O)N[C@@H](CCCNC(=N)N)C(=O)N2)C(C)C)C(=O)N[C@@H](CC(C)C)C(=O)N[C@@H](CC(C)C)C(=O)N[C@@H](CCC(N)=O)C(=O)N1)[C@@H](C)CC)C(=O)N[C@@H](CO)C(=O)N[C@@H](CCCNC(=N)N)C(N)=O [SP-21] (H-Y[dA]DA[R8]FTNSYR[S5]VLGQLSAR[S5]LLQ[S5]I[Nle]SR-NH2; staple 5-12, 21-25)		1.65 mL/min/kg	5.3 h	0.524 L/kg	10.1 h		
CCCC[C@H](NC(=O)[C@@H](NC(=O)[C@H](CC(=O)O)NC(=O)[C@H](CCC(N)=O)NC(=O)[C@H](CC(C)C)NC(=O)[C@H](CC(C)C)NC(=O)[C@H](CCCCN)NC(=O)[C@H](CCCNC(=N)N)NC(=O)[C@]1(C)CCCC=CCCCCCC[C@@](C)(NC(=O)[C@H](CCCNC(=N)N)NC(=O)[C@H](Cc2ccc(O)cc2)NC(=O)[C@H](CO)NC(=O)[C@H](CC(N)=O)NC(=O)[C@@H](NC(=O)[C@H](Cc2ccccc2)NC(=O)[C@@H](NC(=O)[C@H](C)NC(=O)[C@H](CC(=O)O)NC(=O)[C@@H](C)NC(=O)[C@@H](N)Cc2ccc(O)cc2)[C@@H](C)CC)[C@@H](C)O)C(=O)N[C@@H](C(C)C)C(=O)N[C@@H](CC(C)C)C(=O)NCC(=O)N[C@@H](CCC(N)=O)C(=O)N[C@@H](CC(C)C)C(=O)N[C@@H](CO)C(=O)N1)[C@@H](C)CC)C(=O)N[C@@H](CO)C(=O)N[C@@H](CCCNC(=N)N)C(N)=O [SP-32] (H-Y[dA]DAIFTNSYR[R8]VLGQLS[S5]RKLLQDI[Nle]SR-NH2; staple 12-19)		1.35 mL/min/kg	2.3 h	0.19 L/kg	9.7 h		
CC/C=C/CC(=O)N[C@@H](Cc1ccc(O)cc1)C(=O)N[C@@H](C)C(=O)N[C@@H](CC(=O)O)C(=O)N[C@@H](C)C(=O)N[C@H](C(=O)N[C@@H](Cc1ccccc1)C(=O)N[C@H](C(=O)N[C@@H](CC(N)=O)C(=O)N[C@@H](CO)C(=O)N[C@@H](Cc1ccc(O)cc1)C(=O)N[C@@H](CCCNC(=N)N)C(=O)N[C@@H](CCCCN)C(=O)N[C@H](C(=O)N[C@@H](CC(C)C)C(=O)NCC(=O)N[C@@H](CCC(N)=O)C(=O)N[C@@H](CC(C)C)C(=O)N[C@@H](CO)C(=O)N[C@@H](C)C(=O)N[C@@H](CCCNC(=N)N)C(=O)N[C@@H](CCCCN)C(=O)N[C@@H](CC(C)C)C(=O)N[C@@H](CC(C)C)C(=O)N[C@@H](CCC(N)=O)C(=O)N[C@@H](CC(=O)O)C(=O)N[C@H](C(=O)N[C@@H](CCSC)C(=O)N[C@@H](CO)C(=O)N[C@@H](CCCNC(=N)N)C(=O)N[C@@H](CCC(N)=O)C(=O)N[C@@H](CCC(N)=O)C(=O)NCC(=O)N[C@@H](CCC(=O)O)C(=O)N[C@@H](CO)C(=O)N[C@@H](CC(N)=O)C(=O)N[C@@H](CCC(N)=O)C(=O)N[C@@H](CCC(=O)O)C(=O)N[C@@H](CCCNC(=N)N)C(=O)NCC(=O)N[C@@H](C)C(=O)N[C@@H](CCCNC(=N)N)C(=O)N[C@@H](C)C(=O)N[C@@H](CCCNC(=N)N)C(=O)N[C@@H](CC(C)C)C(N)=O)[C@@H](C)CC)C(C)C)[C@@H](C)O)[C@@H](C)CC [Tesamorelin, dog 0.1 µg/kg IV**]	5301 ng·h/mL				0.4 h		
GHRH: Human GHRH (Growth Hormone-Releasing Hormone), a 44-amino-acid peptide							0.167 to 0.2 h
